Three compounds from ChEMBL document CHEMBL1134339, “New 1-aryl-3-(4-arylpiperazin-1-yl)propane derivatives, with dual action at 5-HT1A serotonin receptors and serotonin transporter, as a new class of antidepressants” (J Med Chem, 2001) can be followed below.

In general, Ki refers to a measure of affinity in units of concentration, obtained from inhibition or displacement.

For test [1], the target named is Muscarinic acetylcholine receptor. Kind of test: Affinity at muscarinic receptor, (For atropine Ki(nM)= 3.5+/-0.3). The test is classed as protein assay.
Test [2] has as its system Mus musculus. The test can be described thus: Time-dependent effect on 8-OH-DPAT-induced hypothermia (change in body temperature) after 30 min, in mice at 5 mg/kg dose. The test is classed as functional.
The target of test [3] is T1, 5-hydroxytryptamine receptor 2A (Rattus norvegicus, UniProt P14842). Kind of test: Affinity at 5-hydroxytryptamine 2 receptor (For ketanserin = Ki(nM)= 0.7+/-0.09).
In test [4] the target is T2, Adrenergic receptor beta (Rattus norvegicus, UniProt P18090+P10608+P26255). The test can be described thus: Affinity at beta-adrenoceptor (For DHA Ki(nM)= 3.5+/-0.3). The test is classed as protein assay.
For test [5], the target named is 5-hydroxytryptamine receptor 1D (Homo sapiens, UniProt P28221). Kind of test: Affinity at 5-hydroxytryptamine 1D receptor (For sumatriptan = Ki (nM)-12+/-1.9).
In test [6] the target is T2, Adrenergic receptor beta.
Test [7] deals with T1, 5-hydroxytryptamine receptor 2A. Kind of test: Affinity at 5-hydroxytryptamine 2 receptor from rat frontal cortex using [3H]ketanserin as radioligand (For ketanserin = Ki(nM)=0.7+/-0.09). The class given is tissue-based.
Test [8] concerns Mus musculus. The test can be described thus: Antidepressant-like activity in the forced swimming test (FST) in mice at 10 mg/kg dose; Antidepressant like activity. The class given is functional.
For test [9], the target named is T3, Adrenergic receptor alpha-2 (Rattus norvegicus, UniProt P22086+P19328+P22909).
T3 sequence (P22086 whole entry): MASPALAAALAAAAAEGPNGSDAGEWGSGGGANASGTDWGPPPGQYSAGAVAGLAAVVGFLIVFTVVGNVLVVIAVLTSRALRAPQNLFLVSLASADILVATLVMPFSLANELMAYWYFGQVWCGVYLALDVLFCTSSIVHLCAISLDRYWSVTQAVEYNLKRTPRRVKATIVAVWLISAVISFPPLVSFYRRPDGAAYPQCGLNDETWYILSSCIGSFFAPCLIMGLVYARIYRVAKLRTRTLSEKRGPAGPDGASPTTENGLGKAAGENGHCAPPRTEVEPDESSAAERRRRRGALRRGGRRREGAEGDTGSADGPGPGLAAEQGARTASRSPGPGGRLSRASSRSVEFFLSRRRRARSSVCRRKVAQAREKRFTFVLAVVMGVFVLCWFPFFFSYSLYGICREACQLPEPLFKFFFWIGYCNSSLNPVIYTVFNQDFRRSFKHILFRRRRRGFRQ
T3 sequence (P19328 whole entry): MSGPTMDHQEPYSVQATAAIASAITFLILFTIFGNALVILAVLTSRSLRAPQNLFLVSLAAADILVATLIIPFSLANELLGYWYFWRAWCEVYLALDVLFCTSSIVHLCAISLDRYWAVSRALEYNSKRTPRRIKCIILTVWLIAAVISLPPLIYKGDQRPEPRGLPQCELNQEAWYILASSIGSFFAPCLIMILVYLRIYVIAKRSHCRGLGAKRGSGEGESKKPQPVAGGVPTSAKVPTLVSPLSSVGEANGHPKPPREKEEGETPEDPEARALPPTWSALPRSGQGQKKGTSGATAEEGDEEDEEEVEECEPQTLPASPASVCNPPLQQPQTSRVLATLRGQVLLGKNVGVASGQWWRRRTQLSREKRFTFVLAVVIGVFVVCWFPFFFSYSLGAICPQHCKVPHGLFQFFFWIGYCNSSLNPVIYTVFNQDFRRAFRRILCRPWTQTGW
T3 sequence (P22909 whole entry): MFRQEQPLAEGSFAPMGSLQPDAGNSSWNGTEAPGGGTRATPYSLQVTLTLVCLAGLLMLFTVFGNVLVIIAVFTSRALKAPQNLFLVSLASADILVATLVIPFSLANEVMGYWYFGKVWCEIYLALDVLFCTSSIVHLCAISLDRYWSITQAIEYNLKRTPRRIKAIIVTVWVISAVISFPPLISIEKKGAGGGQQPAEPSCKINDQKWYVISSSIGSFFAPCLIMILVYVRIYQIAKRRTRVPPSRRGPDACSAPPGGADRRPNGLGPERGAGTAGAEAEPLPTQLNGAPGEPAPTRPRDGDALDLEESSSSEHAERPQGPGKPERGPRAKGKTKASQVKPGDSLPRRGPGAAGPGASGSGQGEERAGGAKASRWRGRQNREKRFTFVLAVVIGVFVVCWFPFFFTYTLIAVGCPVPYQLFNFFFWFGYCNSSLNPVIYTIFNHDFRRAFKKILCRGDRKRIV
Kind of test: Affinity towards alpha-2 adrenoceptor from rat cortex using [3H]-clonidine as radioligand (For clonidine Ki(nM)= […]+/-[…]).

For test [10], the system named is Rattus norvegicus. The test can be described thus: Effect on helpless behavior in rats and the number of escape failures was determined in shuttle-box session-3 (SB-) at 1 mg/kg dose. The test is classed as functional.
Test [11] relates to Mus musculus. Kind of test: Time-dependent effect on 8-OH-DPAT-induced hypothermia (change in body temperature) after 60 min, in mice at 0.01 mg/kg dose. The class given is functional.
Test [12] relates to Mus musculus. The test can be described thus: Antidepressant-like activity in the forced swimming test (FST) in mice at 0.001 mg/kg dose; Antidepressant like activity. The class given is functional.
In test [13] the test system is Mus musculus. The test can be described thus: Effect on immobility time in the forced swimming test (FST) in mice at 0.001 mg/kg dose. The test is classed as functional.
Test [14] has as its system Mus musculus. Kind of test: Effect on immobility time in the forced swimming test (FST) in mice at 0.01 mg/kg dose. The class given is functional.
The test system of test [15] is Mus musculus. Kind of test: Antidepressant-like activity in the forced swimming test (FST) in mice at 0.1 mg/kg dose; Antidepressant like activity. The test is classed as functional.
Test [16] has as its target D(2) dopamine receptor (Rattus norvegicus, UniProt P61169). Kind of test: Affinity at dopamine D2 receptor from rat striatum using [3H]spiroperidol as radioligand (For haloperidol Ki(nM)= 1.5+/-1.2). The class given is tissue-based.
Test [17] has as its system Rattus norvegicus. Kind of test: Effect on helpless behavior in rats and the number of escape failures was determined in shuttle-box session-3 (SB-3) at 10 mg/kg dose. The class given is functional.
For test [18], the system named is Mus musculus. The test can be described thus: Antidepressant-like activity in the forced swimming test (FST) in mice at 1 mg/kg dose; Antidepressant like activity. The class given is functional.
Test [19] has as its target T4, 5-hydroxytryptamine receptor 1A (Homo sapiens) (UniProt P08908).
T4 sequence (whole entry): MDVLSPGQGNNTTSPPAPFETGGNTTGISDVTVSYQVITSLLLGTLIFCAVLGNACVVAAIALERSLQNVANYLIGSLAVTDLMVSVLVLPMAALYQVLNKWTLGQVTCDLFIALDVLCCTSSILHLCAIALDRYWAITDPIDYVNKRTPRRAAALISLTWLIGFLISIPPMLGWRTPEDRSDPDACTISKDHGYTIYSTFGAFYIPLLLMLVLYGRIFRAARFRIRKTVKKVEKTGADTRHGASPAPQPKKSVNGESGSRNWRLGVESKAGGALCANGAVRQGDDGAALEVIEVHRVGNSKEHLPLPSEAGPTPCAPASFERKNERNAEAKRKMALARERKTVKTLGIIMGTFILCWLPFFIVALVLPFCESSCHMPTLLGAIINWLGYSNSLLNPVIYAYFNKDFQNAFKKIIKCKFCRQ
The test can be described thus: Percent increase in the Forskolin-Stimulated cAMP formation, in HeLa cells transfected with the 5-HT 1A receptor a [compound (1 uM)]. The test is classed as functional, cell-based. Background: Changes in cAMP serve as a functional read-out for many G protein-coupled receptors.

T1 sequence (P14842 whole entry): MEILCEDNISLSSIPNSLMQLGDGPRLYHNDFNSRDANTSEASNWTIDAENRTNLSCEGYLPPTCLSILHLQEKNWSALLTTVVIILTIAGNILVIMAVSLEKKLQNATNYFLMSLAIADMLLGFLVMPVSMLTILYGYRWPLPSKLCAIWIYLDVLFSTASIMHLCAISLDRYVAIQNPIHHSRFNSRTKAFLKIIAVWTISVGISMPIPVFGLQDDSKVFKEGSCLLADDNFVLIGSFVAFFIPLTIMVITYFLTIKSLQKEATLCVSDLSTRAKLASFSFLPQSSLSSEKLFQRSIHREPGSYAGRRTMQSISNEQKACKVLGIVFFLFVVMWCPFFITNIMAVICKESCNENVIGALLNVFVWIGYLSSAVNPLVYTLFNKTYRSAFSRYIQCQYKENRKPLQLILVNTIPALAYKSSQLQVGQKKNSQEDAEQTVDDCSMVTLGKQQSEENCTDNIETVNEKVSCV
D(2) dopamine receptor, sequence (P61169 whole entry): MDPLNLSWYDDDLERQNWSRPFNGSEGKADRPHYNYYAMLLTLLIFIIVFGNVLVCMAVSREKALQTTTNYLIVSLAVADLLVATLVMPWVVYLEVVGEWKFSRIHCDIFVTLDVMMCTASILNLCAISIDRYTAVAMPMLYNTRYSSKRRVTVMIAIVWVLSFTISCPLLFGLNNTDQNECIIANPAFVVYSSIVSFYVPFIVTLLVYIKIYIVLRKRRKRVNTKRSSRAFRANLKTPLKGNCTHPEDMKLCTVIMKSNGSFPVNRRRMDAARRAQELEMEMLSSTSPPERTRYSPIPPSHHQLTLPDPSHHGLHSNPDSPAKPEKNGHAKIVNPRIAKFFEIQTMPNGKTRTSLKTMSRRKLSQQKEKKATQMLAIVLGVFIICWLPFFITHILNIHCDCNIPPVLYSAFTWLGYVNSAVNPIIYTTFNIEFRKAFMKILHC
5-hydroxytryptamine receptor 1D, sequence (P28221 whole entry): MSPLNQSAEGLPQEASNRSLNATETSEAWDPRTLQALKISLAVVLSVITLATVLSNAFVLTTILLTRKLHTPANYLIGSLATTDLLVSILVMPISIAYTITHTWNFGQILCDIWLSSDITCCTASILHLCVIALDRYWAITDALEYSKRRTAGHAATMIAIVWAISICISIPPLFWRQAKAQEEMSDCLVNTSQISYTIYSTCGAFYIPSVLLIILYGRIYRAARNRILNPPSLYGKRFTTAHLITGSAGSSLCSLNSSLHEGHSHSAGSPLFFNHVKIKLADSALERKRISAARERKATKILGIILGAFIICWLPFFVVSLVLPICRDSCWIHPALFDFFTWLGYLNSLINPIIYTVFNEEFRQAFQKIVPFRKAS

As to `COc1ccccc1N1CCN(CCC(=O)c2csc3ccccc23)CC1`, the Ki in test [1] was > 5 µM; in test [3], 5 µM; in [4], > 5 µM; in [5], 5 µM. The Temperature change in test [2] was <-1.47 °C.
As for `COc1ccccc1N1CCN(CCC(O)c2csc3ccccc23)CC1` (configuration not stated), the Ki in test [6] was 750 nM; in test [7], 250 nM; in test [9], 2 µM; in [16], 150 nM. Besides, the Temperature change in test [2] was -2.5 °C; in test [11], -0.73 °C. For the same compound, the Activity is listed as 1% in [8], 67% in test [12], 35% in test [15] and 33% in [18]. Besides, the “No. of escape failures” value is given as 1.8 in [10] and 4 in test [17]. Also, the Immobility time in test [13] is <58.8 s; in test [14] it was <54.4 s.
In [19], `COc1ccccc1N1CCN(CCC(Oc2cccc3ccccc23)c2ccsc2)CC1` (configuration not stated) returned a cAMP increase of 52%. The Ki is > 5000 nM in test [6], > 5000 nM in test [7], 5 µM in [9] and 2500 nM in test [16]. The Activity was determined as 49% in [8], 0% in test [15] and 48% in test [18].
